# Reference: US20100040734A1, “Cacao Husk-Derived Water-Soluble, Dietary Fiber, Process For Its Production, Foods and Beverages Containing It And Methods For Their Preparation” (FUJI OIL COMPANY, LIMITED, priority 2000, published 2010)
# Tests used:
# Test in all cases: microbiostatic property by turbidity in standard liquid medium
# Format in all cases: cell-based
# Settings in all cases: 35° C.
# Aspergillus oryzae = system: Aspergillus oryzae
# Source text: (§1) For evaluation of the shelf-life extending property (microbiostatic property), there was used a standard liquid medium (pH 7.2) containing the cacao husk-derived water-soluble dietary fiber of the invention at 0%, 0.5% or 1.0% with suitable amounts of shelf stability increasing substances, and using Escherichia coli, Aspergilius oryzae and Saccharomyces cerevisiae as the target strains. […] As the turbidity of the medium increases with growth of the cells, a test substance with a microbiostatic property will inhibit the cell growth and result in less turbidity. The turbidity was determined by measuring the absorbance at a wavelength of 610 nm (the spectrophotometer used was PTL-396S by JASCO Co., Ltd.), and the units for the turbidity were based on JIS1010.
# Saccharomyces cerevisiae = system: Saccharomyces cerevisiae
# Source text: as §1
# Escherichia coli = system: Escherichia coli
# Description: […] The turbidity was determined by measuring the absorbance at a wavelength of 610 nm (the spectrophotometer used was PTL-396S by JASCO Co., Ltd.), and the units for the turbidity were based on JIS1010.
compound,measurement,setting,value
CCO [Ethanol],turbidity,"Aspergillus oryzae; added at 0.05%, days stored 1",17 unit
same,turbidity,"Aspergillus oryzae; added at 0.05%, days stored 2",128 unit
same,turbidity,"Aspergillus oryzae; added at 0.05%, days stored 3",328 unit
same,turbidity,"Aspergillus oryzae; added at 0.1%, days stored 1",10 unit
same,turbidity,"Aspergillus oryzae; added at 0.1%, days stored 2",112 unit
same,turbidity,"Aspergillus oryzae; added at 0.1%, days stored 3",251 unit
same,turbidity,"Aspergillus oryzae; added at 0.1%, days stored 4",475 unit
same,turbidity,"Saccharomyces cerevisiae; added at 0.05%, days stored 1",59 unit
same,turbidity,"Saccharomyces cerevisiae; added at 0.05%, days stored 2",251 unit
same,turbidity,"Saccharomyces cerevisiae; added at 0.05%, days stored 3",487 unit
same,turbidity,"Saccharomyces cerevisiae; added at 0.1%, days stored 1",36 unit
same,turbidity,"Saccharomyces cerevisiae; added at 0.1%, days stored 2",182 unit
same,turbidity,"Saccharomyces cerevisiae; added at 0.1%, days stored 3",411 unit
same,turbidity,"Escherichia coli; added at 0.05%, days stored 1",104 unit
same,turbidity,"Escherichia coli; added at 0.05%, days stored 2",441 unit
same,turbidity,"Escherichia coli; added at 0.1%, days stored 1",112 unit
same,turbidity,"Escherichia coli; added at 0.1%, days stored 2",382 unit
same,turbidity,"Escherichia coli; added at 0.1%, days stored 3",455 unit
O=C1O[C@H]([C@@H](O)CO)C([O-])=C1O.[Na+] [Na ascorbate],turbidity,"Aspergillus oryzae; added at 0.1%, days stored 1",107 unit
same,turbidity,"Aspergillus oryzae; added at 0.1%, days stored 2",370 unit
same,turbidity,"Aspergillus oryzae; added at 0.5%, days stored 1",58 unit
same,turbidity,"Aspergillus oryzae; added at 0.5%, days stored 2",178 unit
same,turbidity,"Aspergillus oryzae; added at 0.5%, days stored 3",422 unit
same,turbidity,"Saccharomyces cerevisiae; added at 0.1%, days stored 1",122 unit
same,turbidity,"Saccharomyces cerevisiae; added at 0.1%, days stored 2",391 unit
same,turbidity,"Saccharomyces cerevisiae; added at 0.5%, days stored 1",76 unit
same,turbidity,"Saccharomyces cerevisiae; added at 0.5%, days stored 2",251 unit
same,turbidity,"Saccharomyces cerevisiae; added at 0.5%, days stored 3",433 unit
same,turbidity,"Escherichia coli; added at 0.1%, days stored 1",115 unit
same,turbidity,"Escherichia coli; added at 0.1%, days stored 2",402 unit
same,turbidity,"Escherichia coli; added at 0.5%, days stored 1",18 unit
same,turbidity,"Escherichia coli; added at 0.5%, days stored 2",211 unit
same,turbidity,"Escherichia coli; added at 0.5%, days stored 3",315 unit
same,turbidity,"Escherichia coli; added at 0.5%, days stored 4",452 unit
[Cl-].[Na+] [Salt],turbidity,"Aspergillus oryzae; added at 1.0%, days stored 1",99 unit
same,turbidity,"Aspergillus oryzae; added at 1.0%, days stored 2",487 unit
same,turbidity,"Aspergillus oryzae; added at 2.0%, days stored 1",68 unit
same,turbidity,"Aspergillus oryzae; added at 2.0%, days stored 2",272 unit
same,turbidity,"Aspergillus oryzae; added at 2.0%, days stored 3",429 unit
same,turbidity,"Saccharomyces cerevisiae; added at 1.0%, days stored 1",112 unit
same,turbidity,"Saccharomyces cerevisiae; added at 1.0%, days stored 2",425 unit
same,turbidity,"Saccharomyces cerevisiae; added at 2.0%, days stored 1",24 unit
same,turbidity,"Saccharomyces cerevisiae; added at 2.0%, days stored 2",377 unit
same,turbidity,"Escherichia coli; added at 1.0%, days stored 1",141 unit
same,turbidity,"Escherichia coli; added at 1.0%, days stored 2",524 unit
same,turbidity,"Escherichia coli; added at 2.0%, days stored 1",31 unit
same,turbidity,"Escherichia coli; added at 2.0%, days stored 2",353 unit
Glycerin fatty acid ester,turbidity,"Aspergillus oryzae; added at 0.01%, days stored 1",86 unit
same,turbidity,"Aspergillus oryzae; added at 0.01%, days stored 2",417 unit
same,turbidity,"Aspergillus oryzae; added at 0.05%, days stored 1",53 unit
same,turbidity,"Aspergillus oryzae; added at 0.05%, days stored 2",199 unit
same,turbidity,"Aspergillus oryzae; added at 0.05%, days stored 3",418 unit
same,turbidity,"Saccharomyces cerevisiae; added at 0.01%, days stored 1",79 unit
same,turbidity,"Saccharomyces cerevisiae; added at 0.01%, days stored 2",281 unit
same,turbidity,"Saccharomyces cerevisiae; added at 0.01%, days stored 3",485 unit
same,turbidity,"Saccharomyces cerevisiae; added at 0.05%, days stored 1",38 unit
same,turbidity,"Saccharomyces cerevisiae; added at 0.05%, days stored 2",107 unit
same,turbidity,"Saccharomyces cerevisiae; added at 0.05%, days stored 3",375 unit
same,turbidity,"Escherichia coli; added at 0.01%, days stored 1",113 unit
same,turbidity,"Escherichia coli; added at 0.01%, days stored 2",415 unit
same,turbidity,"Escherichia coli; added at 0.05%, days stored 1",47 unit
same,turbidity,"Escherichia coli; added at 0.05%, days stored 2",196 unit
same,turbidity,"Escherichia coli; added at 0.05%, days stored 3",305 unit
same,turbidity,"Escherichia coli; added at 0.05%, days stored 4",481 unit
